{
  "source": "patent US20200371122A1",
  "about": "“BIOMARKER FOR SENESCENT CELLS” (Buck Institute for Research on Aging, priority 2017, published 2020)",
  "key": {"IMR-90 fibroblasts": {"tested_on": "IMR-90 fibroblasts", "assay_type": "cell-based, human", "protocol": "(§1) Human fetal lung fibroblasts (IMR-90) were cultured in Dulbecco's modified eagle medium (DMEM) supplemented with 10% FBS and penicillin/streptomycin. LL 29 (AnHa) cells were obtained from the ATCC and growth to confluence using the ATCC protocol, but were subcultured as described for IMR-90 before initiation of all experiments. Quiescence was induced by replacing culture media with media containing 0.2% FBS. MCF-7 and MDA-MB-231 breast cancer cells were cultured in RPMI supplemented with 10% FBS and penicillin/streptomycin. All cells were cultured at 3% O2, and used between 25 and 40 population doublings. All cells were mycoplasma free.\nRNA was extracted from cells or tissues using commercially available kits (Isolate II—Bioline for cells; Direct-zol—Zymo for tissues) according to the manufacturer's instructions. cDNA synthesis was performed using a High Capacity cDNA Reverse Transcription Kit (Thermo Fisher) according to the manufacturer's instructions. Quantitative PCR was performed on a LightCycler 480 II (Roche) using primers and probes designed for the Universal Probe Library. Primers and probes used for human transcripts were ACTB: 5′-CCAACCGCGAGAAGATGA (SEQ ID NO:1), 5′-TCCATCACGATGCCAGTG (SEQ ID NO:2), Probe #64; TUBA: 5′-cttcgtctccgccatcag (SEQ ID NO:3), 5′-ttgccaatctggacacca (SEQ ID NO:4), Probe #58; ALOX5: 5′-[…] (SEQ ID NO:5), 5′-[…] (SEQ ID NO:6), Probe #64; ALOX5AP: 5′-ggtctgcggggctacttt (SEQ ID NO:7), 5′-[…] (SEQ ID NO:8), Probe #18; ALOX12: 5′-[…] (SEQ ID NO:9), 5′-agccaggtcgtcaggag (SEQ ID NO:10), Probe #32; ALOX15: 5′-[…] (SEQ ID NO:11), 5′-[…] (SEQ ID NO:12), Probe #76; ALOX15B: 5′-[…] (SEQ ID NO:13), 5′-actgggaggcgaagaagg (SEQ ID NO:14), Probe #51; AKR1C1: 5′-catgcctgtcctgggattt (SEQ ID NO:15), 5′-[…] (SEQ ID NO:16), Probe #49; AKR1C2: 5′-ctatgcgcctgcagaggt (SEQ ID NO:17), 5′-[…] (SEQ ID NO:18), Probe #31; AKR1C3: 5′-[…] (SEQ ID NO:19), 5′-[…] (SEQ ID NO:20), Probe #78; CYSLTR2: 5′-[…] (SEQ ID NO:21), 5′-[…] (SEQ ID NO:22), Probe #18; DPEP1: 5′-gacgtcctgaggctggtg (SEQ ID NO:23), 5′-[…] (SEQ ID NO:24), Probe #9 (SEQ ID NO:25), ELOVL2: 5′-[…] (SEQ ID NO:26), 5′-[…] (SEQ ID NO:27), Probe #53; ELOVL4: 5′-catttggcccatggattc (SEQ ID NO:28), 5′-[…] (SEQ ID NO:29), Probe #31; ELOVL5: 5′-cccttccatgcgtccata (SEQ ID NO:30), 5′-[…] (SEQ ID NO:31), Probe #31; EPHX2: 5′-ttctgctggacaccctgaa (SEQ ID NO:32), 5′-[…] (SEQ ID NO:33), Probe #45; GPX4: 5′-ttcccgtgtaaccagttcg (SEQ ID NO:34), 5′-[…] (SEQ ID NO:35), Probe #36; LTA4H: 5′-ctgctctcacggtccagtc (SEQ ID NO:36), 5′-[…] (SEQ ID NO:37), Probe #64; LTBR2: 5′-[…] (SEQ ID NO:38), 5′-[…] (SEQ ID NO:39), Probe #33; LTC4S: 5′-[…] (SEQ ID NO:40), 5′-[…] (SEQ ID NO:41), Probe #18; PTGDS: 5′-[…] (SEQ ID NO:42), 5′-[…] (SEQ ID NO:43), Probe #36; PTGES: 5′-agagatgcctgcccacag (SEQ ID NO:44), 5′-tggccaccacgtacatctt (SEQ ID NO:45), Probe #4; PTGES2: 5′-[…] (SEQ ID NO:46), 5′-[…] (SEQ ID NO:47), Probe #49; PTGES3 (SEQ ID NO:48), 5′-[…] (SEQ ID NO:49), 5′-[…] (SEQ ID NO:50), Probe #48; PTGIS: 5′-[…] (SEQ ID NO:51), 5′-[…] (SEQ ID NO:52), Probe #45; PTGR1: 5′-atgatggggcagcaagtg (SEQ ID NO:53), 5′-cccatcagaaatggagtgc (SEQ ID NO:54), Probe #64; PTGS1: 5′-[…] (SEQ ID NO:55), 5′-gtggtggtccatgttcctg (SEQ ID NO:56), Probe #81; PTGS2: 5′-gatccccagggctcaaac (SEQ ID NO:57), 5′-[…] (SEQ ID NO:58), Probe #61; TBXAS1: 5′-[…] (SEQ ID NO:59), 5′-tgcctcccgtgtgaatct (SEQ ID NO:60), Probe #73; AREG: 5′-[…] (SEQ ID NO:61), 5′-[…] (SEQ ID NO:62), Probe #73; CCL2: 5′-AGTCTCTGCCGCCCTTCT (SEQ ID NO:63), 5′-GTGACTGGGGCATTGATTG (SEQ ID NO:64), Probe #40; CCL27: 5′-[…] (SEQ ID NO:65), 5′-gctgggtggcagtaggaat (SEQ ID NO:66), Probe #18; CXCL1: 5′-[…] (SEQ ID NO:67), 5′-[…] (SEQ ID NO:68), Probe #52; HGF: 5′-[…] (SEQ ID NO:69), 5′-[…]"}, "[1]": {"tested_on": "IL-6 secretion in senescent cells", "test": "IL-6 ELISA on conditioned media of IR-induced senescent cells treated with COX-2/ALOX5 inhibitors", "assay_type": "cell-based, human", "conditions": "SEN(IR) IMR-90, inhibitor for 10 days", "protocol": "as §1\nSenescence was induced by irradiation with 10 Gy of ionizing radiation. Non-senescent controls (proliferating or quiescent) were placed in the irradiator for an identical period of time without turning on the irradiator. Oncogene-induced senescence was induced via lentiviral overexpression of HRAS^V12, as described previously (Wiley et al. (2016) Cell Metab. 23: 303-314).\n3×10^4 cells in 12-well plates were treated as indicated in the text, and cultured in 0.5-1 ml serum-free DMEM for 24 hr. CM were collected and clarified at 2,000×g for 10 min. Supernatants were transferred to a tube; cells were trypsinized and counted. CM (2.5 μl) were analyzed by bead-based ELISAs (AlphaLISA, Perkin-Elmer) as instructed by the manufacturer and normalized to cell number."}},
  "data": [
    {"smiles": "CC(/C=C/c1cccc(Oc2ccc(F)cc2)c1)N(O)C(N)=O", "note": "(centres unmarked) [BW-B70C]", "values": [
      {"measurement": "growth of non-senescent cells", "setting": "IMR-90 fibroblasts", "value": "retarded growth"},
      {"measurement": "lowered IL-6 secretion in senescent cells", "setting": "[1]", "value": "~50", "unit": "%"}
    ]}
  ]
}
